Assay results from ChEMBL document CHEMBL3046565, “Fungicidal and herbicidal activities of berberine related alkaloids” (2000).

How the values were obtained:
Type in all cases: functional
Puccinia recondita = assay: Antifungal activity against Puccinia recondita on wheat plant assessed as disease control at 100 ppm after 24 hr
[1] = system: Agrostis stolonifera var. palustris; assay: Herbicidal activity against Agrostis stolonifera var. palustris at 1 ppm after 9 days relative to control
Zymoseptoria tritici = assay: Antifungal activity against Zymoseptoria tritici on wheat plant at 25 ppm after 24 hr
Phytophthora infestans = assay: microbe, parasite or virus in culture; conditions: in Oryza sativa, 24 h
[2] = system: Blumeria graminis f. sp. tritici; assay: Antifungal activity against Blumeria graminis f. sp. tritici on wheat plant assessed as disease control at 100 ppm after 24 hr
Parastagonospora nodorum [3] = assay: Antifungal activity against Phaeosphaeria nodorum on wheat plant at 25 ppm after 24 hr
Lemna minor = assay: Herbicidal activity against Lemna minor (common duckweed) at 1 ppm after 9 days relative to control
Ustilago maydis = assay: Antifungal activity against Ustilago maydis on rice plant at 25 ppm after 24 hr; conditions: Mycosarcoma maydis
Rhizoctonia solani = assay: Antifungal activity against Rhizoctonia solani on rice plant at 25 ppm after 24 hr
Pyricularia oryzae = assay: microbe, parasite or virus in culture; conditions: 24 h
Parastagonospora nodorum [4] = assay: Antifungal activity against Phaeosphaeria nodorum on wheat plant assessed as disease control at 100 ppm after 24 hr

| Compound | Activity (Puccinia recondita) | Activity [1] | inhibition at 25 ppm (Zymoseptoria tritici) | inhibition at 25 ppm (Phytophthora infestans) | Activity [2] | inhibition at 25 ppm (Parastagonospora nodorum [3]) | Activity (Lemna minor) | inhibition at 25 ppm (Ustilago maydis) | inhibition at 25 ppm (Rhizoctonia solani) | inhibition at 25 ppm (Pyricularia oryzae) | Activity (Parastagonospora nodorum [4]) |
| --- | --- | --- | --- | --- | --- | --- | --- | --- | --- | --- | --- |
| COc1ccc2cc3[n+](cc2c1O)CCc1cc2c(cc1-3)OCO2 [BERBERRUBINE] | 0% | 0% | 0% | 0% | 0% | 0% | 0% | 0% | 0% | 0% | 0% |
| CCCCCCc1c2[n+](cc3c(OC)c(OC)ccc13)CCc1cc(OC)c(OC)cc1-2.[Cl-] [13-HEXYLPALMATINE] | 67% | 0% | 100% | 0% | 0% | 0% | 70% | 0% | 0% | 0% | 80% |
| COc1ccc2c(c1OC)CN1CCc3cc4c(cc3[C@@H]1[C@H]2O)OCO4.Cl | 0% | 0% | 0% | 0% | 0% | 0% | 0% | 0% | 0% | 0% | 0% |
| COc1ccc2c(O)c3[n+](cc2c1OC)CCc1cc2c(cc1-3)OCO2.[Cl-] [13-HYDROXYBERBERINE] | 67% | 0% | 0% | 40% | 41% | 0% | 0% | 0% | 0% | 0% | 0% |
| CCCCc1c2[n+](cc3c(OC)c(OC)ccc13)CCc1cc3c(cc1-2)OCO3.[Cl-] | 0% | 0% | 90% | 0% | 0% | 0% | 60% | 0% | 0% | 0% | 67% |
| COc1ccc2cc3[n+](cc2c1OC)CCc1cc2c(cc1-3)OCO2.[Cl-] [BERBERINE CHLORIDE] | 0% | 0% | 90% | 0% | 0% | 0% | 75% | 0% | 0% | 0% | 0% |
| CCCc1c2[n+](cc3c(OC)c(OC)ccc13)CCc1cc(OC)c(OC)cc1-2.[Cl-] | 0% | 0% | 0% | 0% | 0% | 0% | 65% | 0% | 0% | 0% | 73% |
| COc1ccc2c(c1OC)C[N@@+]1(C)CCc3cc4c(cc3[C@@H]1[C@H]2O)OCO4.[Cl-] | 0% | 0% | 0% | 0% | 0% | 0% | 0% | 0% | 0% | 0% | 0% |
| COc1cc2c(cc1OC)-c1cc3ccc(OC)c(OC)c3c[n+]1CC2.[Cl-] [PALMATINE CHLORIDE] | 0% | 0% | 80% | 0% | 0% | 0% | 0% | 0% | 0% | 0% | 0% |
| CCCc1c2[n+](cc3c(OC)c(OC)ccc13)CCc1cc3c(cc1-2)OCO3.[Cl-] | 0% | 0% | 90% | 0% | 0% | 0% | 65% | 0% | 0% | 0% | 67% |
| COc1ccc2c(c1OC)C[N@+]1(C)CCc3cc4c(cc3[C@@H]1[C@H]2O)OCO4.[Cl-] | 0% | 0% | 0% | 0% | 0% | 0% | 0% | 0% | 0% | 0% | 0% |
| COc1ccc2c(C)c3[n+](cc2c1OC)CCc1cc2c(cc1-3)OCO2.[Cl-] | 75% | 0% | 80% | 0% | 0% | 0% | 75% | 0% | 0% | 0% | 0% |
| COc1ccc2c(c1OC)CN1CCc3cc4c(cc3[C@@H]1[C@@H]2C)OCO4.Cl | 0% | 0% | 0% | 0% | 0% | 0% | 0% | 0% | 0% | 0% | 0% |
| CCOc1c(OC)ccc2cc3[n+](cc12)CCc1cc2c(cc1-3)OCO2.[Cl-] [9-O-ETHYLBERBERRUBINE] | 75% | 0% | 90% | 0% | 0% | 0% | 70% | 0% | 0% | 0% | 0% |
| CCOc1c(OC)ccc2c(CC)c3[n+](cc12)CCc1cc2c(cc1-3)OCO2.[Cl-] [9-O-ETHYL-13-ETHYLBERBERRUBINE] | 8% | 0% | 90% | 0% | 0% | 0% | 70% | 0% | 0% | 0% | 87% |
| COc1ccc2c(c1OC)C[N@@+]1(C)CCc3cc4c(cc3[C@@H]1[C@@H]2C)OCO4.[Cl-] | 0% | 0% | 0% | 0% | 0% | 0% | 0% | 0% | 0% | 0% | 0% |
| CCc1c2[n+](cc3c(OC)c(OC)ccc13)CCc1cc3c(cc1-2)OCO3.[Cl-] | 58% | 0% | 90% | 0% | 0% | 0% | 70% | 0% | 0% | 0% | 60% |
| COc1ccc2c(c1OC)C[N+]1(C)CCc3cc4c(cc3C1=C2C)OCO4.[Cl-] (configuration not stated) | 0% | 0% | 0% | 0% | 0% | 0% | 0% | 40% | 0% | 0% | 0% |
| CCCCc1c2[n+](cc3c(OC)c(OC)ccc13)CCc1cc(OC)c(OC)cc1-2.[Cl-] | 0% | 0% | 90% | 0% | 0% | 0% | 65% | 0% | 0% | 0% | 73% |
| COc1cc2c(cc1OC)-c1c(C)c3ccc(OC)c(OC)c3c[n+]1CC2.[Cl-] | 0% | 0% | 0% | 0% | 0% | 0% | 65% | 0% | 0% | 0% | 0% |
| COc1cc2c(cc1OC)-c1cc3ccc(OC)c(O)c3c[n+]1CC2.[Cl-] [PALMATRUBINE] | 0% | 0% | 0% | 0% | 0% | 0% | 0% | 0% | 0% | 0% | 0% |
| CCc1c2[n+](cc3c(OC)c(OC)ccc13)CCc1cc(OC)c(OC)cc1-2.[Cl-] | 0% | 0% | 0% | 0% | 0% | 0% | 70% | 0% | 0% | 0% | 0% |
